Patent US9028845B2, “Chimeric immunomodulatory compounds and methods of using the same-IV” (Dynavax Technologies Corporation, priority 2001, dated 2015)

Tested on: mice
Assay: Serum cytokines (IL-12 p40, IL-6, TNF-α) after subcutaneous injection in mice
Assay type: in vivo
Conditions: 20 ug subcutaneous, blood 2 hours later
Method: Blood was collected 2 hours later. For the LPS positive control group, mice were injected intraperitoneally with a 200 ul volume, and blood was collected 1.5 hours later (i.e., at the peak of LPS induced TNF-α activity). The blood was clotted and the serum was prepared and stored at −80° C. until assayed. Serum cytokines were assayed using Biosource cytoscreen kits for TNF-α and Pharmingen antibody pairs for mIL-6 and mIL-12. All samples were assayed in duplicate.

5′-AACGTT-3′ [Compound P-11]
induction of serum IL-12 p40, IL-6 and TNF-α, in words: inactive
